Measurements reported in patent US20260250318A1, “COMPOSITIONS AND METHODS FOR CROSSING THE BLOOD BRAIN BARRIER” (VOYAGER THERAPEUTICS, INC., priority 2022, published 2026).

Test system: brains, heart, liver, muscle, and DRG of the NHPs
Assay: Maturation of TTM-001 and TTM-002 capsids, NGS enrichment in NHP tissues
Format: in vivo
Description: This Example describes maturation of the AAV9 capsid variants, TTM-001 (SEQ ID NO: 981 (amino acid) and 983 (DNA), comprising SEQ ID NO: 941 (encoded by SEQ ID NO: 942)) and TTM-002 (SEQ ID NO: 982 (amino acid) and 984 (DNA), comprising SEQ ID NO: […] (encoded by SEQ ID NO: 944)) in NHPs to further enhance their transduction and biodistribution in the central nervous system as well as other tissues, and evolve the AAV capsid variants to provide further cross-species compatibility. Two approaches were used to mature the TTM-001 and TTM-002 capsid sequences in order to randomize and mutate within and around the peptide insert comprised within loop IV of the capsid variant. […] In the first maturation approach, sets of three contiguous amino acids were randomized across the mutagenesis region in the TTM-001 and TTM-002 sequences, which spanned from position 450 to position 466, numbered according to SEQ ID NO: 981 and 982. In the second maturation approach, mutagenic primers were used to introduce point mutations at a low frequency, scattered across the mutagenesis region in the TTM-001 and TTM-002 sequences ranging from position 449 to position 466, numbered according to SEQ ID NO: 981 and 982. AAV capsid variants arising from each maturation approach for TTM-001 and TTM-002 were pooled together, for subsequent testing and characterization in NHPs.
The library of pooled matured AAV capsid variants generated using the first maturation approach and the second maturation approach for the TTM-001 and TTM-002 AAV capsid variants were injected into two NHPs. […] Following RNA recovery and RT-PCR amplification, a systematic NGS enrichment analysis was performed to calculate the fold enrichment ratio relative to an AAV9 control, and the peptides comprised within the variants were identified.
Following the RNA recovery and NGS analysis from the second maturation approach, approximately 680,000 capsid variants were identified. The 680,000 matured capsid variants were then filtered based on samples with a raw virus count greater than 10 and a coefficient of variance (CV) of less than 1, which was calculated for each peptide across the brain samples taken from the two NHPs. […] Using this filtering criteria, this led to approximately 64,000 matured capsid variants.

[1] = NHP DRG, NGS, relative to AAV9 control
[2] = NHP brain, NGS, relative to AAV9 control
[3] = NHP heart, NGS, relative to AAV9 control
[4] = NHP liver DNA, NGS, relative to AAV9 control
[5] = NHP liver RNA, NGS, TTM-001 and TTM-002 matured AAV capsid variants, relative to AAV9 control
[6] = NHP muscle, NGS, relative to AAV9 control

Sequence | Fold Enrichment relative to AAV9, DRG (NHP) [1] [fold] | Fold Enrichment relative to AAV9, Brain (NHP) [2] [fold] | Fold Enrichment relative to AAV9, Heart (NHP) [3] [fold] | Fold Enrichment relative to AAV9, Liver DNA (NHP) [4] [fold] | Fold Enrichment relative to AAV9, Liver RNA (NHP) [5] [fold] | Fold Enrichment relative to AAV9, Muscle (NHP) [6] [fold] | Fold Enrichment relative to AAV9, DRG (NHP) (NGS fold-enrichment, DRG, NHP, relative to AAV9) [fold] | Fold Enrichment relative to AAV9, Brain (NHP) (NGS fold-enrichment, brain, NHP, relative to AAV9) [fold] | Fold Enrichment relative to AAV9, Heart (NHP) (NGS fold-enrichment, heart, NHP, relative to AAV9) [fold] | Fold Enrichment relative to AAV9, Liver DNA (NHP) (NGS fold-enrichment, liver DNA, NHP, relative to AAV9) [fold] | Fold Enrichment relative to AAV9, Liver RNA (NHP) (NGS fold-enrichment, liver RNA, NHP, relative to AAV9) [fold] | Fold Enrichment relative to AAV9, Muscle (NHP) (NGS fold-enrichment, muscle, NHP, relative to AAV9) [fold]
KFFHGSGSPHSKAQNQQT | 0.000 | 0.000 | 0.000 | 0.897 | 15.412 | 0.000 | – | – | – | – | – | –
KKHLGSGSPHSKAQNQQT | 0.000 | 0.000 | 0.000 | 0.658 | 18.521 | 0.000 | – | – | – | – | – | –
KPARGSGSPHSKAQNQQT | 0.000 | 0.000 | 0.000 | 1.391 | 16.793 | 0.000 | – | – | – | – | – | –
KPFLGSGSPHSKAQNQQT | – | – | – | – | – | – | 0.000 | 0.000 | 0.000 | 1.328 | 10.318 | 0.000
KPRFGSGSPHSKAQNQQT | 0.000 | 0.000 | 0.000 | 0.657 | 27.203 | 0.000 | – | – | – | – | – | –
KPRWGSGSPHSKAQNQQT | 0.000 | 0.000 | 375.537 | 0.386 | 51.637 | 0.000 | – | – | – | – | – | –
KRFSGSGSPHSKAQNQQT | 0.000 | 0.000 | 0.000 | 1.358 | 11.024 | 0.000 | – | – | – | – | – | –
KRSYGSGSPHSKAQNQQT | 0.000 | 0.000 | 0.000 | 2.841 | 22.474 | 0.000 | – | – | – | – | – | –
KRYNGSGSPHSKAQNQQT | 0.000 | 0.000 | 0.000 | 0.806 | 15.160 | 0.000 | – | – | – | – | – | –
KSRRGSGSPHSKAQNQQT | 0.000 | 0.000 | 0.000 | 1.446 | 16.131 | 0.000 | – | – | – | – | – | –
KTICGRGSPHSKAQNQQT | 0.000 | 0.000 | 0.000 | 2.171 | 18.923 | 0.000 | – | – | – | – | – | –
KTIFDCGSPHSKAQNQQT | 0.000 | 0.000 | 0.000 | 1.602 | 27.844 | 0.000 | – | – | – | – | – | –
